Measured values from patent publication US20070136834A1, “Method and system for real-time analysis of biosensor data” (priority 2005, published 2007).

System: naturally-occurring algae
Experiment: Variable chlorophyll fluorescence induction of naturally-occurring algae in Clinch River water, differential displacement (least-squares) analysis against control curve
Format: cell-based
Text: Primary-source drinking water is monitored at regular intervals, for example every three to five minutes. • 2. Each (analog) chlorophyll fluorescence induction curve that is acquired for each interval is digitized and stored. The shape of each curve is a recording of the physiological status of the algae at that point in time. • 3. For each subsequent recording, such as three to five minutes later, the variable chlorophyll fluorescence induction curve at that time can be compared with the curve that was recorded three to five minutes earlier. • 4. By using a nonlinear least-squares fit of the current data with the previous curve, a quantitative assessment can be made that determines the degree of departure of the current curve as compared to its predecessor. • 5. Based on an algorithm, such as algorithms described herein, an objective real-time assessment of the degree of departure is obtained between the variable fluorescence curves and the correlation of that departure with the possible presence of toxins in the water.
Data analysis typically comprises three steps. […] Third, the set of numbers that comprises the transformation coefficient is analyzed for specific patterns analyzed by custom software to detect “fingerprints” for specific toxins such as chemical toxins. […]

COP(=S)(OC)Oc1ccc([N+](=O)[O-])cc1 [methyl parathion]
effect on shape of variable fluorescence induction curve: change the shape of the variable fluorescence induction curve
